# Laboratory results published in patent publication US9366676B2, “Fluorescent chemical compounds having high selectivity for double stranded DNA, and methods for their use” (LIFE TECHNOLOGIES CORPORATION, priority 2005, dated 2016).
# Tested on: calf thymus double stranded DNA and ribosomal RNA
# Assay: Determination of DNA/RNA fluorescence ratios
# Type: binding
# Conditions: for DNA/RNA (fluorescence ratio): 65 ug/mL calf thymus dsDNA vs 65 ug/mL ribosomal RNA, 10 mM Tris, 1 mM EDTA pH 7.5, ratio of 1 = no selectivity; for ex/em: emission: emission value, second number of ex/em cell; for ex/em: excitation: excitation value, first number of ex/em cell
# Protocol: The tested compound was dissolved as a stock solution in DMSO at a concentration of about 0.1-1.0 mg/mL. The exact concentration is not critical. Three tubes are prepared, each containing the same 1-20 uL of stock solution. The first tube contained 10 mM Tris, 1 mM EDTA (pH 7.5) buffer; the second tube contained buffer and 65 ug/mL calf thymus double stranded DNA; and the third tube contained buffer and 65 ug/mL ribosomal RNA. The tubes were incubated at room temperature for 10-15 minutes with protection from light.
# In some cases, it was necessary to dilute the sample to keep the fluorescence signal on-scale. In these cases, all three samples were diluted to the same degree. The ratio of the fluorescence of the compound in the presence of DNA and RNA was determined.
# The following compounds were selected as representative of the inventive class of compounds. The fluorescence values in the presence of DNA and RNA were determined as described in the previous Example. […] A ratio of 1 would indicate no selectivity. Excitation and emission values are in nm
Compound,DNA/RNA (fluorescence ratio),ex/em: emission [nm],ex/em: excitation [nm]
CCCN(CCCN(C)C)C1=CC(=Cc2sc3cc(-c4c(OC)cccc4OC)ccc3[n+]2C)c2ccccc2N1Cc1ccccc1 [Compound 16],15.2,532,504
COc1cccc(OC)c1-c1ccc2c(c1)sc(C=C1C=C(N(C)CCN(C)C)N(Cc3ccccc3)c3ccccc31)[n+]2C [Compound 18],3.5,533,505
COc1cccc(OC)c1-c1ccc2c(c1)sc(C=C1C=C(n3ccnc3)N(Cc3ccccc3)c3ccccc31)[n+]2C [Compound 19],7.3,553,525
COc1cccc(OC)c1-c1ccc2c(c1)sc(C=C1C=C(N3CCNCC3)N(Cc3ccccc3)c3ccccc31)[n+]2C [Compound 21],5.4,534,510
CNCCN(C)C1=CC(=Cc2sc3cc(-c4c(OC)cccc4OC)ccc3[n+]2C)c2ccccc2N1Cc1ccccc1 [Compound 22],4.7,534,505
CNCCCN(C)C1=CC(=Cc2sc3cc(-c4c(OC)cccc4OC)ccc3[n+]2C)c2ccccc2N1Cc1ccccc1 [Compound 23],3.8,529,500
CCN(CC)Cc1ccc(C2=CC(=Cc3sc4cc(-c5c(OC)cccc5OC)ccc4[n+]3C)c3ccccc3N2Cc2ccccc2)cc1 [Compound 25],9,559,518
CCCCC1=CC(=Cc2sc3cc(-c4c(OC)cccc4OC)ccc3[n+]2C)c2ccccc2N1Cc1ccccc1 [Compound 26],36,541,505
CCCN(CCCN(C)C)C1=CC(=Cc2sc3cc(-c4c(OC)cccc4OC)ccc3[n+]2C)c2ccccc2N1c1ccccc1 [Compound 28],6.5,527,497
CCCN(CCCN(C)C)C1=CC(=Cc2sc3cc(-c4c(OC)cccc4OC)ccc3[n+]2C)c2ccccc2N1C [Compound 30],5.7,527,495
CCCN(CCC[N+](C)(C)C)C1=CC(=Cc2sc3cc(-c4c(OC)cccc4OC)ccc3[n+]2C)c2ccccc2N1Cc1ccccc1 [Compound 31],10.5,534,505
COC1=CC(=Cc2sc3cc(-c4c(OC)cccc4OC)ccc3[n+]2C)c2ccccc2N1Cc1ccccc1 [Compound 32],36,517,498
C#CCN1C(N(CCC)CCCN(C)C)=CC(=Cc2sc3cc(-c4c(OC)cccc4OC)ccc3[n+]2C)c2ccccc21 [Compound 34],5.8,532,503
CCCN(CCCN(C)C)C1=CC(=Cc2sc3cc(-c4c(OC)cccc4OC)ccc3[n+]2C)c2ccc(OC)cc2N1Cc1ccccc1 [Compound 38],13,522,497
CCCN(CCCN(C)C)C1=CC(=Cc2sc3cc(-c4c(OC)cccc4OC)ccc3[n+]2C)c2cc(OC)ccc2N1Cc1ccccc1 [Compound 39],6.1,536,507
COc1cccc(OC)c1-c1ccc2c(c1)sc(C=C1C=CN(Cc3ccc(CN4CCN(C)CC4)cc3)c3ccccc31)[n+]2C [Compound 44],22,540,510
COc1cccc(OC)c1-c1ccc2c(c1)sc(C=C1C=CN(Cc3ccc(CN4CCOCC4)cc3)c3ccccc31)[n+]2C [Compound 45],13.2,541,511

Compound,DNA/RNA (fluorescence ratio),ex/em: emission [nm],ex/em: excitation [nm]
COc1cccc(OC)c1-c1ccc2c(c1)sc(C=C1C=CN(Cc3ccc(C[N+](C)(C)CCCN(C)C)cc3)c3ccccc31)[n+]2C [Compound 46],11.5,542,512
COc1cccc(OC)c1-c1ccc2c(c1)sc(C=C1C=CN(Cc3ccc(CN(C)CCCN(C)C)cc3)c3ccccc31)[n+]2C [Compound 47],8.6,541,512
COc1cccc(OC)c1-c1ccc2c(c1)sc(C=C1C=CN(Cc3ccc(C[N+](C)(C)C)cc3)c3ccccc31)[n+]2C [Compound 48],7.3,540,513
COc1cccc(OC)c1-c1ccc2c(c1)sc(C=C1C=CN(Cc3ccc(C[N+](C)(C)CCC[N+](C)(C)C)cc3)c3ccccc31)[n+]2C [Compound 49],18,542,520
COc1cccc(OC)c1-c1ccc2c(c1)sc(C=C1C=CN(Cc3ccccc3)c3ccccc31)[n+]2C [Compound 53],60,540,510
COc1cccc(OC)c1-c1ccc2c(c1)sc(C=C1C=CN(Cc3ccncc3)c3ccccc31)[n+]2C [Compound 55],10.9,541,513
COc1cccc(OC)c1-c1ccc2c(c1)sc(C=C1C=CN(Cc3cc[n+](C)cc3)c3ccccc31)[n+]2C [Compound 56],3.7,545,515
CCCCn1cc(N2C(N(CCC)CCCN(C)C)=CC(=Cc3sc4cc(-c5c(OC)cccc5OC)ccc4[n+]3C)c3ccccc32)nn1 [Compound 57],3.8,536,506
COc1cccc(OC)c1-c1ccc2c(c1)sc(C=C1C=CN(CCc3ccccc3)c3ccccc31)[n+]2C [Compound 62],48,539,510
COc1cccc(OC)c1-c1ccc2c(c1)sc(C=C1C=CN(C)c3ccccc31)[n+]2C [Compound 65],11.3,536,506
CCCN(CCCN(C)C)C1=CC(=Cc2sc3cc(-c4c(C)cccc4C)ccc3[n+]2C)c2ccccc2N1c1ccccc1 [Compound 68],7,523,498
Cc1cccc(C)c1-c1ccc2c(c1)sc(C=C1C=C(N(C)CCCN(C)C)N(c3ccccc3)c3ccccc31)[n+]2C [Compound 69],3.2,523,494
Cc1cccc(C)c1-c1ccc2c(c1)sc(C=C1C=C(N(C)CCCN(C)C)N(Cc3ccccc3)c3ccccc31)[n+]2C [Compound 70],2.7,524,501
C[n+]1c(C=C2C=CN(Cc3ccccc3)c3ccccc32)oc2ccc(-c3ccccc3)cc21 [Compound 89],1.8,512,485
CCN(CC)Cc1ccc(C2=CC(=Cc3sc4cc(-c5ccccc5)ccc4[n+]3C)c3ccccc3N2c2ccccc2)cc1 [Compound 91],1.5,563,522
C[n+]1c(C=C2C=CN(Cc3ccccc3)c3ccccc32)sc2cc(-c3ccccc3)ccc21 [Compound 92],1,501,458
C[n+]1c(C=C2C=CN(Cc3ccccc3)C(c3ccccc3)=C2)sc2cc(-c3ccccc3)ccc21 [Compound 93],1.5,514,466
